Laboratory results from ChEMBL document CHEMBL3217685, “Quantitative affinity-based chemical proteomics of TrkA inhibitors” (Medchemcomm, 2012).

Assays:
[1] = target: T1, BDNF/NT-3 growth factors receptor (Homo sapiens, UniProt Q16620); experiment: Inhibition of TrkB (unknown origin) by cell-based assay
[2] = Apparent permeability from basolateral side to apical side of MDCK cells; assay type: ADME, cell-based, Canis lupus familiaris; conditions: dog
[3] = Apparent permeability from apical side to basolateral side of MDCK cells; assay type: ADME, cell-based, Canis lupus familiaris; conditions: dog
[4] = target: T2, High affinity nerve growth factor receptor (Homo sapiens, UniProt P04629); experiment: Inhibition of TrkA (unknown origin) by cell-based assay
T2 sequence (P04629 whole entry): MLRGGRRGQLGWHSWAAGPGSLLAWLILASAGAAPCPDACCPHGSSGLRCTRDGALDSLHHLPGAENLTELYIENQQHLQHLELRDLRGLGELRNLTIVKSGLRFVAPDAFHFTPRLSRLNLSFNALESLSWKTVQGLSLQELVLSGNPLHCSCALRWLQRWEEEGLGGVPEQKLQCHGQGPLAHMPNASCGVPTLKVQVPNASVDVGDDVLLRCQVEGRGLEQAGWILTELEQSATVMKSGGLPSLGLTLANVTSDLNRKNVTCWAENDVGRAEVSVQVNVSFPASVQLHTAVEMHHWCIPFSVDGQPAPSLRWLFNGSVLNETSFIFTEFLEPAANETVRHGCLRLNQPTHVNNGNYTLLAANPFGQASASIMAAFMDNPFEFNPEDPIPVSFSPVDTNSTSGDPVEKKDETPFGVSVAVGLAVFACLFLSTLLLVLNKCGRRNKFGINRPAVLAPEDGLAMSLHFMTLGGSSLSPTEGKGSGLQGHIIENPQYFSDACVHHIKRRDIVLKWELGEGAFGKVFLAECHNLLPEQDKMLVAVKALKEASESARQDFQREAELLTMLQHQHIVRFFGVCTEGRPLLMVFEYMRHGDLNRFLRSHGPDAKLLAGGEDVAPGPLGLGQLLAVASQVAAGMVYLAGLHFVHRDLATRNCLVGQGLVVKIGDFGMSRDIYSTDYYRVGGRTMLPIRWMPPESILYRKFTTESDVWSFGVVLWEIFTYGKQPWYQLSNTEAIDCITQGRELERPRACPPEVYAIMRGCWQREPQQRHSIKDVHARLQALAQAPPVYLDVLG

[5] = target: T1, BDNF/NT-3 growth factors receptor; experiment: Inhibition of TrkB (unknown origin)
[6] = target: T2, High affinity nerve growth factor receptor; experiment: Inhibition of TrkA (unknown origin)

T1 sequence (Q16620 whole entry): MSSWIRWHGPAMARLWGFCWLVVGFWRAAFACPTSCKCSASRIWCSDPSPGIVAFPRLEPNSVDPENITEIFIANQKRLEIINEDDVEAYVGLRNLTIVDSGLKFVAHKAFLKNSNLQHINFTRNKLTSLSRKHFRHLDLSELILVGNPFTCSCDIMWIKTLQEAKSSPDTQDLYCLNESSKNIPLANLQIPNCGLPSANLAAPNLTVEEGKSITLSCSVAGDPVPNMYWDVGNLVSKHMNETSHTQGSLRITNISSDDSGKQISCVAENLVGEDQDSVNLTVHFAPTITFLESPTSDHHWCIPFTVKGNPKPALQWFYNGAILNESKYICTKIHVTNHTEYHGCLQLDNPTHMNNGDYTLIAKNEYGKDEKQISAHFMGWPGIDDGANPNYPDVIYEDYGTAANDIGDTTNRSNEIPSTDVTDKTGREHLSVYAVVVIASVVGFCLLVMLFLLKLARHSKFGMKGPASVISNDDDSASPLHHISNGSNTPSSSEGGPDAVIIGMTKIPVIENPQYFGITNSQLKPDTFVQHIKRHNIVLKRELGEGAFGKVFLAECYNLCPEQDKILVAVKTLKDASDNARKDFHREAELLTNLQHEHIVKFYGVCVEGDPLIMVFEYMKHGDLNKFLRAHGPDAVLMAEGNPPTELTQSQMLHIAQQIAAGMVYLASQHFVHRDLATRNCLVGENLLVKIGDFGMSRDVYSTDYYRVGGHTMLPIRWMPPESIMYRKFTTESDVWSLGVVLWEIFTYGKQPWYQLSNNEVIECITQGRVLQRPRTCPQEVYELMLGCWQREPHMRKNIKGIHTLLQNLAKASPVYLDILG

IC50 [1]: 1300 nM
Papp B→A [2]: < 5 ×10⁻⁶ cm/s
Papp A→B [3]: 1.1 ×10⁻⁶ cm/s
IC50 [4]: 1710 nM
IC50 [5]: 11 nM
IC50 [6]: 51 nM
Structure (SMILES): CC(C)[C@H](CO)Nc1nc(Nc2ccc(C(=O)O)c(Cl)c2)c2ncn(C(C)C)c2n1 [PURVALANOL B]
